Measured values as given in patent US6054435A, “6-O-substituted macrolides having antibacterial activity” (priority 1999, dated 2000).
Values after ≈ are worked out from the molar mass of the structure shown.

Columns and labels:
Test in all cases: in vitro antibacterial activity (MIC), agar dilution
Format in all cases: cell-based
[1] = system: Streptococcus Pneumonia 5979; details: organism code ZZ; BHI agar, 35-37° C., 20 to 24 hours; unit assumed
Description: (§1) Representative compounds of the present invention were assayed in vitro for antibacterial activity as follows: Twelve petri dishes containing successive aqueous dilutions of the test compound mixed with 10 mL of sterilized Brain Heart Infusion (BHI) agar (Difco 0418-01-5) were prepared. Each plate was inoculated with 1:100 (or 1:10 for slow-growing strains, such as Micrococcus and Streptococcus) dilutions of up to 32 different microorganisms, using a Steers replicator block. […] In addition, a control plate, using BHI agar containing no test compound, was prepared and incubated at the beginning and end of each test.
(§2) An additional plate containing a compound having known susceptibility patterns for the organisms being tested and belonging to the same antibiotic class as the test compound was also prepared and incubated as a further control, as well as to provide test-to-test comparability.
(§3) After incubation, each plate was visually inspected. The minimum inhibitory concentration (MIC) was defined as the lowest concentration of drug yielding no growth, a slight haze, or sparsely isolated colonies on the inoculum spot as compared to the growth control.

Escherichia coli JUHL = details: organism code QQ; BHI agar, 35-37° C., 20 to 24 hours; unit assumed
Description: as §1, §2, §3

[2] = system: Nocardia Asteroides ATCC9970; details: organism code VV; BHI agar, 35-37° C., 20 to 24 hours; unit assumed
Description: as §1, §2, §3

[3] = system: Streptococcus Pneumonia 5649; details: organism code ZZA; BHI agar, 35-37° C., 20 to 24 hours; unit assumed
Description: as §1, §2, §3

[4] = system: Micrococcus luteus ATCC 4698; details: organism code PP; BHI agar, 35-37° C., 20 to 24 hours; unit assumed
Description: as §1, §2, §3

[5] = system: Staphylococcus aureus A-5278; details: organism code CC; BHI agar, 35-37° C., 20 to 24 hours; unit assumed
Description: as §1, §2, §3

Candida albicans CCH 442 = details: organism code TT; BHI agar, 35-37° C., 20 to 24 hours; unit assumed
Description: as §1, §2, §3

[6] = system: Staphylococcus aureus NCTC10649M; details: organism code EE; BHI agar, 35-37° C., 20 to 24 hours; unit assumed
Description: as §1, §2, §3

Escherichia coli SS = details: organism code RR; BHI agar, 35-37° C., 20 to 24 hours; unit assumed
Description: as §1, §2, §3

[7] = system: Streptococcus pyogenes 930; details: organism code MM; BHI agar, 35-37° C., 20 to 24 hours; unit assumed
Description: as §1, §2, §3

[8] = system: Staphylococcus aureus 1775; details: organism code GG; BHI agar, 35-37° C., 20 to 24 hours; unit assumed
Description: as §1, §2, §3

[9] = system: Streptococcus Pneumonia GYR 1171; details: organism code YY; BHI agar, 35-37° C., 20 to 24 hours; unit assumed
Description: as §1, §2, §3

[10] = system: Streptococcus Pneumonia ATCC6303; details: organism code XX; BHI agar, 35-37° C., 20 to 24 hours; unit assumed
Description: as §1, §2, §3

[11] = system: Haemophilis Influenzae DILL AMP R; details: organism code WW; BHI agar, 35-37° C., 20 to 24 hours; unit assumed
Description: as §1, §2, §3

[12] = system: Streptococcus pyogenes EES61; details: organism code LL; BHI agar, 35-37° C., 20 to 24 hours; unit assumed
Description: as §1, §2, §3

[13] = system: Staphylococcus aureus A5177; details: organism code BB; BHI agar, 35-37° C., 20 to 24 hours; unit assumed
Description: as §1, §2, §3

[14] = system: Staphylococcus epidermidis 3519; details: organism code HH; BHI agar, 35-37° C., 20 to 24 hours; unit assumed
Description: as §1, §2, §3

[15] = system: Mycobacterium smegmatis ATCC 114; details: organism code UU; BHI agar, 35-37° C., 20 to 24 hours; unit assumed
Description: as §1, §2, §3

[16] = system: Streptococcus bovis A-5169; details: organism code JJ; BHI agar, 35-37° C., 20 to 24 hours; unit assumed
Description: as §1, §2, §3

[17] = system: Staphylococcus aureus ATCC 6538P; details: organism code AA; BHI agar, 35-37° C., 20 to 24 hours; unit assumed
Description: as §1, §2, §3

[18] = system: Streptococcus pyogenes PIU 2548; details: organism code NN; BHI agar, 35-37° C., 20 to 24 hours; unit assumed
Description: as §1, §2, §3

[19] = system: Streptococcus agalactiae CMX 508; details: organism code KK; BHI agar, 35-37° C., 20 to 24 hours; unit assumed
Description: as §1, §2, §3

[20] = system: Staphylococcus aureus CMX 553; details: organism code FF; BHI agar, 35-37° C., 20 to 24 hours; unit assumed
Description: as §1, §2, §3

[21] = system: Staphylococcus aureus CMX 642A; details: organism code DD; BHI agar, 35-37° C., 20 to 24 hours; unit assumed
Description: as §1, §2, §3

[22] = system: Enterococcus faecium ATCC 8043; details: organism code II; BHI agar, 35-37° C., 20 to 24 hours; unit assumed
Description: as §1, §2, §3

Row | SMILES | MIC [1] | MIC (Escherichia coli JUHL) | MIC [2] | MIC [3] | MIC [4] | MIC [5] | MIC (Candida albicans CCH 442) | MIC [6] | MIC (Escherichia coli SS) | MIC [7] | MIC [8] | MIC [9] | MIC [10] | MIC [11] | MIC [12] | MIC [13] | MIC [14] | MIC [15] | MIC [17] | MIC [18] | also measured
1 | CC[C@H]1OC(=O)[C@H](C)C(=O)[C@H](C)[C@@H](O[C@@H]2O[C@H](C)C[C@H](N(C)C)[C@H]2O)[C@](C)(OCC#Cc2ccc(-c3ccccn3)s2)C[C@@H](C)C2=NCCN3C(=O)O[C@@]1(C)[C@H]3[C@H]2C [Example 35] | 4 µg/mL (≈ 4.87 µM) | 25 µg/mL (≈ 30.4 µM) | 0.02 µg/mL (≈ 0.0244 µM) | 0.25 µg/mL (≈ 0.304 µM) | 0.2 µg/mL (≈ 0.244 µM) | > 100 µg/mL | > 100 µg/mL | 0.2 µg/mL (≈ 0.244 µM) | 0.39 µg/mL (≈ 0.475 µM) | 6.2 µg/mL (≈ 7.55 µM) | > 100 µg/mL | ≤ 0.004 µg/mL | ≤ 0.004 µg/mL | 4 µg/mL (≈ 4.87 µM) | 0.02 µg/mL (≈ 0.0244 µM) | 0.1 µg/mL (≈ 0.122 µM) | 0.1 µg/mL (≈ 0.122 µM) | 0.2 µg/mL (≈ 0.244 µM) | 0.05 µg/mL (≈ 0.0609 µM) | 0.2 µg/mL (≈ 0.244 µM) | MIC [16]: 0.01 µg/mL (≈ 0.0122 µM); MIC [19]: 0.05 µg/mL (≈ 0.0609 µM)
2 | CC[C@H]1OC(=O)[C@H](C)C(=O)[C@H](C)[C@@H](O[C@@H]2O[C@H](C)C[C@H](N(C)C)[C@H]2O)[C@](C)(OCC#Cc2ccc(-c3cscn3)s2)C[C@@H](C)C(=O)[C@H](C)[C@H]2NC(=O)O[C@@]21C [Example 30] | 1 µg/mL (≈ 1.25 µM) | 12.5 µg/mL (≈ 15.6 µM) | 0.01 µg/mL (≈ 0.0125 µM) | 0.25 µg/mL (≈ 0.312 µM) | 0.1 µg/mL (≈ 0.125 µM) | > 100 µg/mL | > 100 µg/mL | 0.05 µg/mL (≈ 0.0623 µM) | 0.1 µg/mL (≈ 0.125 µM) | 6.2 µg/mL (≈ 7.73 µM) | > 100 µg/mL | ≤ 0.004 µg/mL | ≤ 0.004 µg/mL | 2 µg/mL (≈ 2.49 µM) | 0.02 µg/mL (≈ 0.0249 µM) | 0.02 µg/mL (≈ 0.0249 µM) | 0.05 µg/mL (≈ 0.0623 µM) | 0.39 µg/mL (≈ 0.486 µM) | 0.02 µg/mL (≈ 0.0249 µM) | 0.1 µg/mL (≈ 0.125 µM) | MIC [16]: ≤ 0.005 µg/mL; MIC [19]: 0.02 µg/mL (≈ 0.0249 µM)
3 | CC[C@H]1OC(=O)[C@H](C)C(=O)[C@H](C)[C@@H](O[C@@H]2O[C@H](C)C[C@H](N(C)C)[C@H]2O)[C@](C)(OCC#Cc2ccc(-c3cccnc3)s2)C[C@@H](C)C(=O)[C@H](C)[C@H]2NC(=O)O[C@@]21C [Example 2] | – | – | 0.05 µg/mL (≈ 0.0628 µM) | – | 0.1 µg/mL (≈ 0.126 µM) | – | – | 0.05 µg/mL (≈ 0.0628 µM) | 0.1 µg/mL (≈ 0.126 µM) | – | – | – | – | – | – | 0.05 µg/mL (≈ 0.0628 µM) | 0.05 µg/mL (≈ 0.0628 µM) | – | 0.05 µg/mL (≈ 0.0628 µM) | 0.1 µg/mL (≈ 0.126 µM) | MIC [20]: 0.05 µg/mL (≈ 0.0628 µM); MIC [21]: 0.05 µg/mL (≈ 0.0628 µM); MIC [22]: 0.05 µg/mL (≈ 0.0628 µM)
4 | CC[C@H]1OC(=O)[C@H](C)C(=O)[C@H](C)[C@@H](O[C@@H]2O[C@H](C)C[C@H](N(C)C)[C@H]2O)[C@](C)(OCC#Cc2ccc(-c3cncc(C(=O)NN(C)C)c3)s2)C[C@@H](C)C(=O)[C@H](C)[C@H]2NC(=O)O[C@@]21C [Example 12] | 1 µg/mL (≈ 1.13 µM) | > 100 µg/mL | 0.2 µg/mL (≈ 0.227 µM) | 1 µg/mL (≈ 1.13 µM) | 0.39 µg/mL (≈ 0.442 µM) | > 100 µg/mL | > 100 µg/mL | 0.39 µg/mL (≈ 0.442 µM) | 0.78 µg/mL (≈ 0.884 µM) | 50 µg/mL (≈ 56.7 µM) | > 100 µg/mL | 0.03 µg/mL (≈ 0.034 µM) | 0.03 µg/mL (≈ 0.034 µM) | 16 µg/mL (≈ 18.1 µM) | 0.05 µg/mL (≈ 0.0567 µM) | 0.39 µg/mL (≈ 0.442 µM) | 0.39 µg/mL (≈ 0.442 µM) | 6.2 µg/mL (≈ 7.03 µM) | 0.39 µg/mL (≈ 0.442 µM) | 0.78 µg/mL (≈ 0.884 µM) | MIC [22]: 0.02 µg/mL (≈ 0.0227 µM); MIC [16]: 0.05 µg/mL (≈ 0.0567 µM); MIC [19]: 0.05 µg/mL (≈ 0.0567 µM)
